Where two headings read alike, the source gives them in different places.
Key:
[1] = tested on: HCV genotype 1a (H77 strain) replicon in HUH-7 cells; assay: HCV replicon luciferase reporter assay, genotype 1a; type: cell-based; details: Hepatitis C virus, Huh-7, 72 h, 3 days incubation
How it was run: (§1)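 Replicon inhibition for both genotypes was measured as Renilla luciferase signal (EnduRen, 7.5 μM final, 2 h) after 3-day, 37° C exposure of replicon-bearing HUH-7 cells in 4% FCS DMEM, 0.5% DMSO. The 1b construct carries S1179I; the 1a H77 construct carries P1496L and S2204I. Twenty-point, 3-fold dilutions were fitted four-parametrically for EC50, and CC50 was taken from multiplexed Cell Titer-Blue.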

[2] = tested on: HCV genotype 1b (Con1) replicon in HUH-7 cells; assay: HCV replicon luciferase reporter assay, genotype 1b; type: cell-based; details: Hepatitis C virus, Huh-7, 72 h, 3 days incubation
How it was run: as §1

[3] = HCV genotype 1a replicon luciferase assay, range class, read-out: LE_1a (EC50, range)
[4] = HCV genotype 1b replicon luciferase assay, range class, read-out: LE_1b (EC50, range)
[5] = HCV genotype 1a replicon luciferase, read-out: LE_1a (EC50, range)
[6] = HCV genotype 1b replicon luciferase, read-out: LE_1b (EC50, range)

SMILES | EC50 [1, 3] | EC50 [2, 4] | EC50 [1, 5] | EC50 [2, 6] | EC50 ([1]; HCV genotype 1a replicon luciferase assay, read-out: LE_1a (EC50)) | EC50 ([2]; HCV genotype 1b replicon luciferase assay, read-out: LE_1b (EC50))
COc1cc(F)cc2c(O[C@@H]3C[C@H]4C(=O)N[C@]5(C(=O)NS(=O)(=O)C6(CF)CC6)C[C@H]5/C=C\CC[C@@H](C)C[C@@H](C)[C@H](NC(=O)OC(C)(C)C(F)(F)F)C(=O)N4C3)nccc12 [Compound 3176, 1,1,1-trifluoro-2-methylpropan-2-yl((2R,6S,7R,9R,13aS,14aR,16aS,Z)-2-((7-fluoro-5-methoxyisoquinolin-1-yl)oxy)-14a-(((1-(fluoromethyl)cyclopropyl)sulfonyl)carbamoyl)-7,9-dimethyl-5,16-dioxo-1,2,3,5,6,7,8,9,10,11,13a,14,14a,15,16,16a-hexadecahydrocyclopropa[e]pyrrolo[1,2-a][1,4]diazacyclopentadecin-6-yl)carbamate] | < 5.46 nM | < 5.46 nM |  |  |  | 
COc1ccc2ncc(O[C@@H]3C[C@H]4C(=O)N[C@]5(C(=O)NS(=O)(=O)C6(C)CC6)C[C@H]5/C=C\CC[C@@H](C)C[C@@H](C)[C@H](NC(=O)OC(C)(C)C)C(=O)N4C3)nc2c1 [Compound 4086, tert-butyl (2R,6S,7R,9R,13aS,14aR,16aS,Z)-2-(7-methoxyquinoxalin-2-yloxy)-7,9-dimethyl-14a-(1-methylcyclopropylsulfonylcarbamoyl)-5,16-dioxo-1,2,3,5,6,7,8,9,10,11,13a,14,14a,15,16,16a-hexadecahydrocyclopropa[e]pyrrolo[1,2-a][1,4]diazacyclopentadecin-6-ylcarbamate] |  |  | < 5.46 nM | < 5.46 nM |  | 
COc1ccc2c(O[C@@H]3C[C@H]4C(=O)N[C@]5(C(=O)NS(=O)(=O)C6(C)CC6)C[C@H]5/C=C\CC[C@H](C)C[C@@H](C)[C@H](NC(=O)OC5(C(F)(F)F)COC5)C(=O)N4C3)nc(OC)cc2c1 [Compound 1140, 3-(trifluoromethyl)oxetan-3-yl ((2R,6S,7R,9S,13aS,14aR,16aS,Z)-2-((3,6-dimethoxyisoquinolin-1-yl)oxy)-7,9-dimethyl-14a-(((1-methylcyclopropyl)sulfonyl)carbamoyl)-5,16-dioxo-1,2,3,5,6,7,8,9,10,11,13a,14,14a,15,16,16a-hexadecahydrocyclopropa[e]pyrrolo[1,2-a][1,4]diazacyclopentadecin-6-yl)carbamate] | < 5.46 nM | < 5.46 nM |  |  |  | 
C[C@@H]1CC/C=C\[C@@H]2C[C@@]2(C(=O)NS(=O)(=O)C2(C)CC2)NC(=O)[C@@H]2C[C@@H](Oc3nccc4c(N5CCOCC5)cccc34)CN2C(=O)[C@@H](NC(=O)OC(C)(C)C)[C@H](C)C1 [Compound 5122, tert-butyl ((2R,6S,7R,9R,13aS,14aR,16aS,Z)-7,9-dimethyl-14a-(((1-methylcyclopropyl)sulfonyl)carbamoyl)-2-((5-morpholinoisoquinolin-1-yl)oxy)-5,16-dioxo-1,2,3,5,6,7,8,9,10,11,13a,14,14a,15,16,16a-hexadecahydrocyclopropa[e]pyrrolo[1,2-a][1,4]diazacyclopentadecin-6-yl)carbamate] |  |  | < 5.46 nM | < 5.46 nM |  | 
COc1ccc2c(O[C@@H]3C[C@H]4C(=O)N[C@]5(C(=O)NS(=O)(=O)C6CC6)C[C@H]5/C=C\CC[C@@H](C)C[C@@H](C)[C@H](NC(=O)OC(C)(C)C)C(=O)N4C3)nc(-c3ccc(OC(C)C)c(F)c3)cc2c1 [Compound 3060, tert-butyl ((2R,6S,7R,9R,13aS,14aR,16aS,Z)-14a-((cyclopropylsulfonyl)carbamoyl)-2-((3-(3-fluoro-4-isopropoxyphenyl)-6-methoxyisoquinolin-1-yl)oxy)-7,9-dimethyl-5,16-dioxo-1,2,3,5,6,7,8,9,10,11,13a,14,14a,15,16,16a-hexadecahydrocyclopropa[e]pyrrolo[1,2-a][1,4]diazacyclopentadecin-6-yl)carbamate] | < 5.46 nM | < 5.46 nM |  |  |  | 
[2H]C([2H])([2H])C(OC(=O)N[C@@H]1C(=O)N2C[C@H](Oc3nccc4c5c(ccc34)N(C)CCO5)C[C@H]2C(=O)N[C@]2(C(=O)NS(=O)(=O)C3(C)CC3)C[C@H]2/C=C\CC[C@@H](C)C[C@H]1C)(C([2H])([2H])[2H])C(F)(F)F [Compound 5298, 1,1,1,3,3,3-hexadeutero-2-(trifluoromethyl)propan-2-yl((2R,6S,7R,9R,13aS,14aR,16aS,Z)-7,9-dimethyl-2-((4-methyl-3,4-dihydro-2H-[1,4]oxazino[2,3-f]isoquinolin-7-yl)oxy)-14a-(((1-methylcyclopropyl)sulfonyl)carbamoyl)-5,16-dioxo-1,2,3,5,6,7,8,9,10,11,13a,14,14a,15,16,16a-hexadecahydrocyclopropa[e]pyrrolo[1,2-a][1,4]diazacyclopentadecin-6-yl)carbamate] |  |  | < 5.46 nM | < 5.46 nM |  | 
COc1ccc2nc(O[C@@H]3C[C@H]4C(=O)N[C@]5(C(=O)NS(=O)(=O)C6(C)CC6)C[C@H]5/C=C\CC[C@@H](C)C[C@@H](C)[C@H](NC(=O)OC(C)(C)C)C(=O)N4C3)cnc2c1 [Compound 4085, tert-butyl (2R,6S,7R,9R,13aS,14aR,16aS,Z)-2-(6-methoxyquinoxalin-2-yloxy)-7,9-dimethyl-14a-(1-methylcyclopropylsulfonylcarbamoyl)-5,16-dioxo-1,2,3,5,6,7,8,9,10,11,13a,14,14a,15,16,16a-hexadecahydrocyclopropa[e]pyrrolo[1,2-a][1,4]diazacyclopentadecin-6-ylcarbamate] |  |  | 4.82 to 103 nM | < 5.46 nM |  | 
C[C@@H]1CC/C=C\[C@@H]2C[C@@]2(C(=O)NS(=O)(=O)C2(C)CC2)NC(=O)[C@@H]2C[C@@H](Oc3nccc4cc(OCC(=O)O)ccc34)CN2C(=O)[C@@H](NC(=O)OC(C)(C)C)[C@H](C)C1 [Compound 2003, 2-((1-(((2R,6S,7R,9R,13aS,14aR,16aS,Z)-6-((tert-butoxycarbonyl)amino)-7,9-dimethyl-14a-(((1-methylcyclopropyl)sulfonyl)carbamoyl)-5,16-dioxo-1,2,3,5,6,7,8,9,10,11,13a,14,14a,15,16,16a-hexadecahydrocyclopropa[e]pyrrolo[1,2-a][1,4]diazacyclopentadecin-2-yl)oxy)isoquinolin-6-yl)oxy)acetic acid] | > 87.4 nM | > 87.4 nM |  |  | 330 nM | 158 nM
C[C@@H]1CC/C=C\[C@@H]2C[C@@]2(C(=O)NS(=O)(=O)C2CC2)NC(=O)[C@@H]2C[C@@H](Oc3nc(OCC(F)F)cc4c(Cl)cccc34)CN2C(=O)[C@@H](NC(=O)O[C@H](C)C(F)(F)F)[C@H](C)C1 [Compound 1100, (R)-1,1,1-trifluoropropan-2-yl ((2R,6S,7R,9R,13aS,14aR,16aS,Z)-2-((5-chloro-3-(2,2-difluoroethoxyl)isoquinolin-1-yl)oxy)-14a-((cyclopropylsulfonyl)carbamoyl)-7,9-dimethyl-5,16-dioxo-1,2,3,5,6,7,8,9,10,11,13a,14,14a,15,16,16a-hexadecahydrocyclopropa[e]pyrrolo[1,2-a][1,4]diazacyclopentadecin-6-yl)carbamate] | < 5.46 nM | < 5.46 nM |  |  |  | 
C[C@H]1CC/C=C\[C@@H]2C[C@@]2(C(=O)NS(=O)(=O)C2CC2)NC(=O)[C@@H]2C[C@@H](Oc3nc(OCC(F)F)cc4c(Cl)cccc34)CN2C(=O)[C@@H](NC(=O)O[C@H](C)C(F)(F)F)[C@H](C)C1 [Compound 1099, (R)-1,1,1-trifluoropropan-2-yl ((2R,6S,7R,9S,13aS,14aR,16aS,Z)-2-((5-chloro-3-(2,2-difluoroethoxyl)isoquinolin-1-yl)oxy)-14a-((cyclopropylsulfonyl)carbamoyl)-7,9-dimethyl-5,16-dioxo-1,2,3,5,6,7,8,9,10,11,13a,14,14a,15,16,16a-hexadecahydrocyclopropa[e]pyrrolo[1,2-a][1,4]diazacyclopentadecin-6-yl)carbamate] | < 5.46 nM | < 5.46 nM |  |  |  | 
CCCOc1cc2c(Cl)cccc2c(O[C@@H]2C[C@H]3C(=O)N[C@]4(C(=O)NS(=O)(=O)C5CC5)C[C@H]4/C=C\CC[C@@H](C)C[C@@H](C)[C@H](NC(=O)O[C@H](C)C(F)(F)F)C(=O)N3C2)n1 [Compound 1082, (R)-1,1,1-trifluoropropan-2-yl ((2R,6S,7R,9R,13aS,14aR,16aS,Z)-2-((5-chloro-3-propoxyisoquinolin-1-yl)oxy)-14a-((cyclopropylsulfonyl)carbamoyl)-7,9-dimethyl-5,16-dioxo-1,2,3,5,6,7,8,9,10,11,13a,14,14a,15,16,16a-hexadecahydrocyclopropa[e]pyrrolo[1,2-a][1,4]diazacyclopentadecin-6-yl)carbamate] | < 5.46 nM | < 5.46 nM |  |  |  | 
COc1ccc2c(O[C@@H]3C[C@H]4C(=O)N[C@]5(C(=O)NS(=O)(=O)C6(C)CC6)C[C@H]5/C=C\CC[C@H](C)C[C@@H](C)[C@H](NC(=O)OC(C)(C)C)C(=O)N4C3)nc(N(C)C)cc2c1 [Compound 3108, tert-butyl ((2R,6S,7R,9S,13aS,14aR,16aS,Z)-2-((3-(dimethylamino)-6-methoxyisoquinolin-1-yl)oxy)-7,9-dimethyl-14a-(((1-methylcyclopropyl)sulfonyl)carbamoyl)-5,16-dioxo-1,2,3,5,6,7,8,9,10,11,13a,14,14a,15,16,16a-hexadecahydrocyclopropa[e]pyrrolo[1,2-a][1,4]diazacyclopentadecin-6-yl)carbamate] | 4.82 to 103 nM | 4.82 to 103 nM |  |  |  | 

Source: US9499550B2 (BRISTOL-MYERS SQUIBB COMPANY, priority 2012, dated 2016)
